The values below come from paper PMC11233931, “Remodeling tumor‐associated macrophage for anti‐cancer effects by rational design of irreversible inhibition of mitogen‐activated protein kinase‐activated protein kinase 2” (MedComm, 2024).

What all share (assay): Eurofins kinase selectivity profile against 380 other human recombinant kinases (Table S2)
Type in all cases: biochemical

For test [1], the target named is T1, 380 human recombinant protein kinases (Homo sapiens, UniProt O14920).
T1 construct: purchased Eurofins (Celle Lévescault)
T1 sequence (O14920 1-756): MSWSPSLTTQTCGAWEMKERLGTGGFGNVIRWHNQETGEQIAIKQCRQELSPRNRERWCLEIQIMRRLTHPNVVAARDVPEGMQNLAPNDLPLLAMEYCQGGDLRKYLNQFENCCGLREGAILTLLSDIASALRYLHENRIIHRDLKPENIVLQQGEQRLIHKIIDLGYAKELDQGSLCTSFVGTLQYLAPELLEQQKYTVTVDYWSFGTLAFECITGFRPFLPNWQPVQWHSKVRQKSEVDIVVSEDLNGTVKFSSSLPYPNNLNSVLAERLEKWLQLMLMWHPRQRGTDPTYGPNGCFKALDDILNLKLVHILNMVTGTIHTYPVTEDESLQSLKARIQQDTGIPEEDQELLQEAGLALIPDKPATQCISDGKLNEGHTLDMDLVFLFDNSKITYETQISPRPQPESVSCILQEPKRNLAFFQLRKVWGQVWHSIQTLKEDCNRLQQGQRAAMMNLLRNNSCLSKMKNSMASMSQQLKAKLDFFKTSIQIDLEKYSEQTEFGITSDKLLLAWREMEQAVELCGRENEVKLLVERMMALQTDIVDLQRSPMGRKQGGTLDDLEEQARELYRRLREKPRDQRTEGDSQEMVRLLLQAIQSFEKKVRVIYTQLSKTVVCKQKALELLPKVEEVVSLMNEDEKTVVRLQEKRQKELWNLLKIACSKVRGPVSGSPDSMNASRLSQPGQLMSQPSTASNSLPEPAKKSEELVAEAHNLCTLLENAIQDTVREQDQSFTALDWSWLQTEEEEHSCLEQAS
As to conditions: IKKβ(h), read-out: Inhibition rate. The method, boiled down:
(§1)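 Outsourced panel: 380 human recombinant kinases; inhibitor tested at various concentrations; purpose: MK2 selectivity check.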

The target in test [2] is T2, 380 human recombinant protein kinases (Homo sapiens, UniProt P17612).
T2 construct: purchased Eurofins (Celle Lévescault)
As to conditions: PKA(h), read-out: Inhibition rate. In outline:
as §1

For test [3], the target named is T3, 380 human recombinant protein kinases (Homo sapiens, UniProt P30291).
T3 construct: purchased Eurofins (Celle Lévescault)
T3 sequence (P30291 whole entry): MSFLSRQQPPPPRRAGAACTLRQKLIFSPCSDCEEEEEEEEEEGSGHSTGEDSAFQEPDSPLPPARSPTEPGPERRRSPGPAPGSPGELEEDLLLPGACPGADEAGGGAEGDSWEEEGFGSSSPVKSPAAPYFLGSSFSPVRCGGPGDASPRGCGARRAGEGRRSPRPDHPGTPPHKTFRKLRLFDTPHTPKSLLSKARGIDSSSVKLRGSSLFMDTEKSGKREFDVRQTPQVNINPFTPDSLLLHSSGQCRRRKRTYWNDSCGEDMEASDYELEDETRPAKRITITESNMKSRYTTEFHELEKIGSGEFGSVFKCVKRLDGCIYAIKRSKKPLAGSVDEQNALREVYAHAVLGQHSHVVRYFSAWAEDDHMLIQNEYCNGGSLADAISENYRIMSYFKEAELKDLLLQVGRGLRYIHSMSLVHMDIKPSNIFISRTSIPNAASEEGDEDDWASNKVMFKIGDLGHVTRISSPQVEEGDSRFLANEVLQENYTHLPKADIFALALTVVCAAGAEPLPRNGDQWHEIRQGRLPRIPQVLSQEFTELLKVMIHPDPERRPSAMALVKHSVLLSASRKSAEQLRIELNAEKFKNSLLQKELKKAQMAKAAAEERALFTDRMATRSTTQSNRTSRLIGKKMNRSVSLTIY
As to conditions: Wee1(h), read-out: Inhibition rate (%). The method, boiled down:
as §1

Test [4] concerns the target T4, 380 human recombinant protein kinases (Homo sapiens, UniProt Q9H0K1).
T4 construct: purchased Eurofins (Celle Lévescault)
Particulars: SIK2(h), read-out: Inhibition rate (%). In outline:
as §1

The target of test [5] is T5, 380 human recombinant protein kinases (Homo sapiens, UniProt Q9NQU5).
T5 construct: purchased Eurofins (Celle Lévescault)
T5 sequence (Q9NQU5 whole entry): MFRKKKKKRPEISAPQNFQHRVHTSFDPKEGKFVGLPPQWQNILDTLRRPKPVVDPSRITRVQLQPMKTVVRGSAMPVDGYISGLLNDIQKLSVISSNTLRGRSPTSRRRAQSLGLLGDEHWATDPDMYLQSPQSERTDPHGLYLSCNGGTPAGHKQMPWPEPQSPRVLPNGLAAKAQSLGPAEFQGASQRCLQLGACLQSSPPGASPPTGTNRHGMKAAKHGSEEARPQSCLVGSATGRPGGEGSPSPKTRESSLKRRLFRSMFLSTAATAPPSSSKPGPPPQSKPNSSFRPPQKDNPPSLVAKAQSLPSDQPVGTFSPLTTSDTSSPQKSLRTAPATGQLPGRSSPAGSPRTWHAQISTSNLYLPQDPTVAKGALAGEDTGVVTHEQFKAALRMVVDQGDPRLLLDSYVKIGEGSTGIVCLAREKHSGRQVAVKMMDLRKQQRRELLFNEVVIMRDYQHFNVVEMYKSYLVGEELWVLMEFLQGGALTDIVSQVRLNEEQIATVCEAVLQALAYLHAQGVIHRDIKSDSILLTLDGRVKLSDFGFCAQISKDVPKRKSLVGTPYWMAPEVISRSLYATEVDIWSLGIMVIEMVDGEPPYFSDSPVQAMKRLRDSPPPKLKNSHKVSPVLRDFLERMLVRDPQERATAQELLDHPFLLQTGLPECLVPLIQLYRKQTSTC
As to conditions: PAK6(h), read-out: Inhibition rate. In outline: as §1

Test [6] addresses T6, 380 human recombinant protein kinases (Homo sapiens, UniProt O94768).
T6 construct: purchased Eurofins (Celle Lévescault)
T6 sequence (O94768 1-372): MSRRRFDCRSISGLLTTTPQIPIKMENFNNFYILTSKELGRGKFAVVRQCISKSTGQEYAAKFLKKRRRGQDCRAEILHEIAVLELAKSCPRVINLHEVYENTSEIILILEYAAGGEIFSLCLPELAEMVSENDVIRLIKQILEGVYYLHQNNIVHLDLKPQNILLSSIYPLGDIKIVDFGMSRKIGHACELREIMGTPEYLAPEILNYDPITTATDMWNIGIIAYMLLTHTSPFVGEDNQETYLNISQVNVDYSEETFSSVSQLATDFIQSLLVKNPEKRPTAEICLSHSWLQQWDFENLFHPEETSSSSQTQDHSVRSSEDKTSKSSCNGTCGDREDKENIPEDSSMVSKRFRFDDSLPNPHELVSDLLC
Particulars: DRAK2(h), read-out: Inhibition rate. The method, boiled down: as §1

Test [7] has as its target T7, 380 human recombinant protein kinases (Homo sapiens, UniProt Q12851).
T7 construct: purchased Eurofins (Celle Lévescault)
T7 sequence (Q12851 1-820): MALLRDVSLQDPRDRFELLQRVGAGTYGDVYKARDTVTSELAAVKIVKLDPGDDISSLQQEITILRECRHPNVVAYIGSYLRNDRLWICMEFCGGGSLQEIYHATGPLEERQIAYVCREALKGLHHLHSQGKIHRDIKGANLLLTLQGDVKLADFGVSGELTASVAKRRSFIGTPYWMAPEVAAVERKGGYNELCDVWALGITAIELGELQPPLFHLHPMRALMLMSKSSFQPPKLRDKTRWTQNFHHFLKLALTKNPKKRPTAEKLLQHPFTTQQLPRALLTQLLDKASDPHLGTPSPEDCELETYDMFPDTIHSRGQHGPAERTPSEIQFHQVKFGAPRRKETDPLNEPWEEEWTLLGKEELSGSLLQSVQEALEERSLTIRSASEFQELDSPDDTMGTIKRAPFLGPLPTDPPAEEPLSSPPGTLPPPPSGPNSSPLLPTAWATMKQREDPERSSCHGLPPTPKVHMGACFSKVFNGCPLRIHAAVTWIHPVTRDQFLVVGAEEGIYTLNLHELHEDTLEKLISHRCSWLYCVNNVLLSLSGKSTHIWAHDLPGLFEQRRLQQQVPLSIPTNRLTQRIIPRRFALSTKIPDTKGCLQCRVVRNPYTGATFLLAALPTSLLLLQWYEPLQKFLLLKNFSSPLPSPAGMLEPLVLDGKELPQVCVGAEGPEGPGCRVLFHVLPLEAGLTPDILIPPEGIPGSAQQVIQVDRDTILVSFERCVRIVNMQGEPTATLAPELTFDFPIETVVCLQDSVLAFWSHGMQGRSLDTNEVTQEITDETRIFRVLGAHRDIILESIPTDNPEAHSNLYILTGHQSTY
Particulars: GCK(h), read-out: Inhibition rate. In outline: as §1

T4 sequence (Q9H0K1 whole entry): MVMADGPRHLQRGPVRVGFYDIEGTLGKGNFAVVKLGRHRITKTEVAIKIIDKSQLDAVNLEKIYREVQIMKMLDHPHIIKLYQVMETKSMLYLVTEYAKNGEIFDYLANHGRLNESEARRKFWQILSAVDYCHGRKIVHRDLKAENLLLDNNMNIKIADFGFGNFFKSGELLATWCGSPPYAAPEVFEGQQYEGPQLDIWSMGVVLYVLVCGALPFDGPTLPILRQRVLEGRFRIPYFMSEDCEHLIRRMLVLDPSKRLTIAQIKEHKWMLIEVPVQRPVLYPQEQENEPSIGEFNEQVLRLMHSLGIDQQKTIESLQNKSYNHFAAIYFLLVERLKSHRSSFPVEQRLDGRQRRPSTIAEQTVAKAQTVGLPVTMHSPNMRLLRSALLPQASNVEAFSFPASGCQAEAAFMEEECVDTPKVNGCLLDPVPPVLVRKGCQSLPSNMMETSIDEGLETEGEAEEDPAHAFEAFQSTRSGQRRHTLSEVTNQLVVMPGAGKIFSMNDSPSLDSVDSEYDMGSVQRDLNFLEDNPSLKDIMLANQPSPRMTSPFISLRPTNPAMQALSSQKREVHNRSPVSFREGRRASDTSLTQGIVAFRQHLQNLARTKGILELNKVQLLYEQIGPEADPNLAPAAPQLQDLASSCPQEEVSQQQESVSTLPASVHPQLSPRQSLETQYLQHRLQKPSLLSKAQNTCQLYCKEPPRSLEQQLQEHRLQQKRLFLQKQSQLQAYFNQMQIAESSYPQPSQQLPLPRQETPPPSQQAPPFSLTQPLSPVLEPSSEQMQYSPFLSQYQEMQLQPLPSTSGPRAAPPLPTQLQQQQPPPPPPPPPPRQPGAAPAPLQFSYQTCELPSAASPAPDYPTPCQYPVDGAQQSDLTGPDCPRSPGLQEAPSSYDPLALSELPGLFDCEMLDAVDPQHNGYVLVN

For `C=CC(=O)Nc1cc(-c2cc(-c3cc4c([nH]3)CCNC4=O)ccn2)ccc1OC(F)(F)F` [compound 11], the inhibition at 0.01 µM in test [1] (10 nM) was -15%; in test [2] (10 nM), -7%; in test [3] (10 nM), -11%; in test [4] (10 nM), 2%; in test [5] (10 nM) it was -2%; in test [6] (10 nM) it was 28%. Moreover, in test [7] (10 nM), the inhibition at 0.01 µM was -2%. Further, the inhibition at 0.1 µM in test [1] (100 nM) is -12%; in test [2] (100 nM), -7%; in test [3] (100 nM), -11%; in test [4] (100 nM) it was 4%; in test [5] (100 nM), -5%; in test [6] (100 nM), 80%. The inhibition at 0.1 µM in test [7] (100 nM) is -9%. Also, the inhibition at 1 µM in test [1] (1000 nM) was -12%; in test [2] (1000 nM), -6%; in test [3] (1000 nM), -4%; in test [4] (1000 nM), 8%; in test [5] (1000 nM) it was -2%; in test [6] (1000 nM), 93%. The inhibition at 1 µM in test [7] (1000 nM) came to 17%.
